Reference: PubChem BioAssay AID1963979 (Molecular Pharmacology Branch, DTP, NCI, 2024)

System: 361931-004-R-J1-PDC multicell spheroid viability
Assay: Anticancer human tumor 361931-004-R-J1-PDC patient-derived colon adenocarcinoma cell line growth inhibition [PI3K]
Conditions: for IC50: curve of first compound; for viability, T/C: stronger effect = lower value
In short: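 High-throughput combination screen: PI3K inhibitors crossed with targeted small molecules on complex spheroids of tumor cells, HUVEC and MSCs at 37 degrees C, 5% CO2. Top concentration was at or near clinical Cmax (otherwise 10 microM), with half-log decrements.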

[1] = second compound 0.00316 µM, first compound 0.0316 µM
[2] = second compound 0.00316 µM, first compound 0.1 µM
[3] = second compound 0.00316 µM, first compound 0.316 µM
[4] = second compound 0.00316 µM, first compound 1 µM
[5] = second compound 0.00316 µM, first compound 3.16 µM
[6] = second compound 0.00316 µM, first compound 10 µM
[7] = second compound 0.01 µM, first compound 0.0316 µM
[8] = second compound 0.01 µM, first compound 0.1 µM
[9] = second compound 0.01 µM, first compound 0.316 µM
[10] = second compound 0.01 µM, first compound 1 µM
[11] = second compound 0.01 µM, first compound 3.16 µM
[12] = second compound 0.01 µM, first compound 10 µM
[13] = second compound 0.0316 µM, first compound 0.0316 µM
[14] = second compound 0.0316 µM, first compound 0.1 µM
[15] = second compound 0.0316 µM, first compound 0.316 µM
[16] = second compound 0.0316 µM, first compound 1 µM
[17] = second compound 0.0316 µM, first compound 3.16 µM
[18] = second compound 0.0316 µM, first compound 10 µM
[19] = second compound 0.1 µM, first compound 0.0316 µM
[20] = second compound 0.1 µM, first compound 0.1 µM
[21] = second compound 0.1 µM, first compound 0.316 µM
[22] = second compound 0.1 µM, first compound 1 µM
[23] = second compound 0.1 µM, first compound 3.16 µM
[24] = second compound 0.1 µM, first compound 10 µM
[25] = second compound 0.316 µM, first compound 0.0316 µM
[26] = second compound 0.316 µM, first compound 0.1 µM
[27] = second compound 0.316 µM, first compound 0.316 µM
[28] = second compound 0.316 µM, first compound 1 µM
[29] = second compound 0.316 µM, first compound 3.16 µM
[30] = second compound 0.316 µM, first compound 10 µM
[31] = second compound 1 µM, first compound 0.0316 µM
[32] = second compound 1 µM, first compound 0.1 µM
[33] = second compound 1 µM, first compound 0.316 µM
[34] = second compound 1 µM, first compound 1 µM
[35] = second compound 1 µM, first compound 3.16 µM
[36] = second compound 1 µM, first compound 10 µM
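Also: spheroids exposed to agents for seven days before readout.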

C#Cc1c(F)ccc2cc(O)cc(-c3ncc4c(N5CC6CCC(C5)N6)nc(OCC56CCCN5CC(F)C6)nc4c3F)c12 (stereo not drawn) + COc1c(OCCCN2CCOCC2)ccc2c3n(c(=NC(=O)c4cnc(N)nc4)nc12)CCN3
IC50 (second compound 0.00316 µM): > 10000 nM | IC50 (second compound 0.01 µM): > 10000 nM | IC50 (second compound 0.0316 µM): > 10000 nM | IC50 (second compound 0.1 µM): 5650 nM | IC50 (second compound 0.316 µM): 101 nM | IC50 (second compound 1 µM): < 31.6 nM | viability, T/C [1]: 105% | viability, T/C [2]: 108% | viability, T/C [3]: 98.1% | viability, T/C [4]: 91.9% | viability, T/C [5]: 101% | viability, T/C [6]: 84.9% | viability, T/C [7]: 107% | viability, T/C [8]: 106% | viability, T/C [9]: 99.1% | viability, T/C [10]: 91% | viability, T/C [11]: 88.8% | viability, T/C [12]: 73% | viability, T/C [13]: 91.5% | viability, T/C [14]: 96.2% | viability, T/C [15]: 85.9% | viability, T/C [16]: 72.5% | viability, T/C [17]: 67.2% | viability, T/C [18]: 51.5% | viability, T/C [19]: 80.6% | viability, T/C [20]: 69.9% | viability, T/C [21]: 68.5% | viability, T/C [22]: 61.8% | viability, T/C [23]: 54.6% | viability, T/C [24]: 45.7% | viability, T/C [25]: 54.5% | viability, T/C [26]: 51.9% | viability, T/C [27]: 42.3% | viability, T/C [28]: 37.3% | viability, T/C [29]: 33.6% | viability, T/C [30]: 23% | viability, T/C [31]: 18.4% | viability, T/C [32]: 17.6% | viability, T/C [33]: 14.9% | viability, T/C [34]: 12.1% | viability, T/C [35]: 9.63% | viability, T/C [36]: 8.02%

CC(Cn1ccc(-c2ccc(C#N)c(Cl)c2)n1)NC(=O)c1cc(C(C)O)[nH]n1 (stereo not drawn) + COc1c(OCCCN2CCOCC2)ccc2c3n(c(=NC(=O)c4cnc(N)nc4)nc12)CCN3
IC50 (second compound 0.00316 µM): > 10000 nM | IC50 (second compound 0.01 µM): > 10000 nM | IC50 (second compound 0.0316 µM): > 10000 nM | IC50 (second compound 0.1 µM): > 10000 nM | IC50 (second compound 0.316 µM): 48.7 nM | IC50 (second compound 1 µM): < 31.6 nM | viability, T/C [1]: 103% | viability, T/C [2]: 92.1% | viability, T/C [3]: 97.7% | viability, T/C [4]: 103% | viability, T/C [5]: 103% | viability, T/C [6]: 98% | viability, T/C [7]: 102% | viability, T/C [8]: 102% | viability, T/C [9]: 99.1% | viability, T/C [10]: 93.5% | viability, T/C [11]: 98.1% | viability, T/C [12]: 95% | viability, T/C [13]: 95.1% | viability, T/C [14]: 94.7% | viability, T/C [15]: 83.5% | viability, T/C [16]: 93.4% | viability, T/C [17]: 89.4% | viability, T/C [18]: 78% | viability, T/C [19]: 81.5% | viability, T/C [20]: 83.2% | viability, T/C [21]: 76.8% | viability, T/C [22]: 70.3% | viability, T/C [23]: 78% | viability, T/C [24]: 62.1% | viability, T/C [25]: 51.4% | viability, T/C [26]: 49.5% | viability, T/C [27]: 47.6% | viability, T/C [28]: 44% | viability, T/C [29]: 42.4% | viability, T/C [30]: 30.6% | viability, T/C [31]: 20.5% | viability, T/C [32]: 19% | viability, T/C [33]: 15.8% | viability, T/C [34]: 19.5% | viability, T/C [35]: 16.7% | viability, T/C [36]: 11.9%

CC1(C)CCC(Nc2ncc(C(F)(F)F)c(-c3c[nH]c4c(P(C)(C)=O)c(C#N)ccc34)n2)CN1 (stereo not drawn) + COc1c(OCCCN2CCOCC2)ccc2c3n(c(=NC(=O)c4cnc(N)nc4)nc12)CCN3
IC50 (second compound 0.00316 µM): 5540 nM | IC50 (second compound 0.01 µM): 4870 nM | IC50 (second compound 0.0316 µM): 4490 nM | IC50 (second compound 0.1 µM): 3680 nM | IC50 (second compound 0.316 µM): < 31.6 nM | IC50 (second compound 1 µM): < 31.6 nM | viability, T/C [1]: 85.5% | viability, T/C [2]: 94.7% | viability, T/C [3]: 83.8% | viability, T/C [4]: 92.7% | viability, T/C [5]: 85.1% | viability, T/C [6]: 12.9% | viability, T/C [7]: 92.4% | viability, T/C [8]: 92.7% | viability, T/C [9]: 82% | viability, T/C [10]: 83.1% | viability, T/C [11]: 73.6% | viability, T/C [12]: 12.7% | viability, T/C [13]: 80.7% | viability, T/C [14]: 72.5% | viability, T/C [15]: 67.7% | viability, T/C [16]: 66.3% | viability, T/C [17]: 67.1% | viability, T/C [18]: 12% | viability, T/C [19]: 63.4% | viability, T/C [20]: 56.6% | viability, T/C [21]: 59.3% | viability, T/C [22]: 51.6% | viability, T/C [23]: 56.6% | viability, T/C [24]: 8.34% | viability, T/C [25]: 39.4% | viability, T/C [26]: 49.5% | viability, T/C [27]: 43.8% | viability, T/C [28]: 44.2% | viability, T/C [29]: 42.6% | viability, T/C [30]: 5.6% | viability, T/C [31]: 20.4% | viability, T/C [32]: 18.4% | viability, T/C [33]: 19.9% | viability, T/C [34]: 24.3% | viability, T/C [35]: 19.9% | viability, T/C [36]: 2.05%

Cn1cnc2c(F)c(Nc3ccc(Br)cc3Cl)c(C(=O)NOCCO)cc21 + Cc1nc(NC(=O)N2CCCC2C(N)=O)sc1-c1ccnc(C(C)(C)C(F)(F)F)c1
IC50 (second compound 0.0316 µM): > 3000 nM | IC50 (second compound 0.1 µM): 2120 nM | IC50 (second compound 0.316 µM): 1170 nM | IC50 (second compound 1 µM): 741 nM | IC50 (second compound 3.16 µM): 204 nM | IC50 (second compound 10 µM): 30.9 nM | viability, T/C (second compound 0.0316 µM, first compound 0.00949 µM): 96.2% | viability, T/C (second compound 0.0316 µM, first compound 0.03 µM): 95.8% | viability, T/C (second compound 0.0316 µM, first compound 0.0949 µM): 82.2% | viability, T/C (second compound 0.0316 µM, first compound 0.3 µM): 78.8% | viability, T/C (second compound 0.0316 µM, first compound 0.949 µM): 75.8% | viability, T/C (second compound 0.0316 µM, first compound 3 µM): 48.3% | viability, T/C (second compound 0.1 µM, first compound 0.00949 µM): 107% | viability, T/C (second compound 0.1 µM, first compound 0.03 µM): 106% | viability, T/C (second compound 0.1 µM, first compound 0.0949 µM): 83.7% | viability, T/C (second compound 0.1 µM, first compound 0.3 µM): 84.5% | viability, T/C (second compound 0.1 µM, first compound 0.949 µM): 70.4% | viability, T/C (second compound 0.1 µM, first compound 3 µM): 41% | viability, T/C (second compound 0.316 µM, first compound 0.00949 µM): 103% | viability, T/C (second compound 0.316 µM, first compound 0.03 µM): 89.5% | viability, T/C (second compound 0.316 µM, first compound 0.0949 µM): 79.2% | viability, T/C (second compound 0.316 µM, first compound 0.3 µM): 74% | viability, T/C (second compound 0.316 µM, first compound 0.949 µM): 57.1% | viability, T/C (second compound 0.316 µM, first compound 3 µM): 29.7% | viability, T/C (second compound 1 µM, first compound 0.00949 µM): 95.9% | viability, T/C (second compound 1 µM, first compound 0.03 µM): 92.7% | viability, T/C (second compound 1 µM, first compound 0.0949 µM): 75.6% | viability, T/C (second compound 1 µM, first compound 0.3 µM): 68% | viability, T/C (second compound 1 µM, first compound 0.949 µM): 44.4% | viability, T/C (second compound 1 µM, first compound 3 µM): 27.5% | viability, T/C (second compound 3.16 µM, first compound 0.00949 µM): 82.7% | viability, T/C (second compound 3.16 µM, first compound 0.03 µM): 77.6% | viability, T/C (second compound 3.16 µM, first compound 0.0949 µM): 61.9% | viability, T/C (second compound 3.16 µM, first compound 0.3 µM): 40% | viability, T/C (second compound 3.16 µM, first compound 0.949 µM): 29.3% | viability, T/C (second compound 3.16 µM, first compound 3 µM): 6.45% | viability, T/C (second compound 10 µM, first compound 0.00949 µM): 59% | viability, T/C (second compound 10 µM, first compound 0.03 µM): 48.4% | viability, T/C (second compound 10 µM, first compound 0.0949 µM): 35% | viability, T/C (second compound 10 µM, first compound 0.3 µM): 12.5% | viability, T/C (second compound 10 µM, first compound 0.949 µM): 4.2% | viability, T/C (second compound 10 µM, first compound 3 µM): 1.47%
